Reference: a melting point compilation (Tetko et al.; mined from patent text by program, amines drawn as free bases though some values may be those of a salt)

Compound	melting point [°C]
CN(C)CCOc1ccc2[nH]c(C(=O)N3CC(CCl)c4c3cc([N+](=O)[O-])c3cc(S(=O)(=O)NCCO)ccc43)cc2c1 (stereo unspecified)	205 to 210
c1nc2c(cc1NC1=NCCN1)COCC2	201 to 202
N#Cc1cc(F)c(N2C(=O)c3ccccc3C2=O)cc1O	247
O=C(O)Cc1cc(C(=O)c2ccccc2)cc(Cl)c1O	131
N#Cc1ccc2c(c1)Sc1ccccc1CC2	145 to 147
OC(/C=C/c1cc(C(F)(F)F)ccc1Cl)(CF)CF	61 to 62
O=C(Nc1nccs1)c1c(C(F)(F)F)nc2cc(C(F)(F)F)ccc2c1O	270
CCCN(CCC)C1Cc2c[nH]c3ccc(C(=O)C(C)C)c(c23)C1 (stereo unspecified)	128
CCC1c2cccn2-c2ccc(C(F)(F)F)cc2N1S(=O)(=O)c1ccc(OC)c(Cl)c1 (stereo unspecified)	126 to 129
COc1ccc(-c2cnn3c(-c4cccc(NC(=O)CC(C)C)c4)ccnc23)cc1	225 to 227
COc1ccc(S(=O)O)cc1	173 to 174
CC1CC(=O)NN=C1c1ccc(N2CCOCC2)c([N+](=O)[O-])c1 (stereo unspecified)	223 to 225
CC(=O)OCC1OC(n2c(Cl)nc3cc(Cl)c(Cl)cc32)C(O)C1O (stereo unspecified)	82 to 87
O=C(NC(=O)C(c1ccccc1)c1ccccc1)OC1CCCCC1	117 to 119
CCCn1c(=O)n2cnnc2c2c1ncn2C	218
CC(C)c1ccc(NC(=O)Oc2ccc3c(c2)CCN3Cc2ccccc2)cc1	145 to 150
CCCCOc1ccc(N2CCN(c3cccc(C)c3)CC2)nn1	105
COC(=O)C1=Cc2cc(Br)ccc2N(c2ccccc2)CC1	104 to 106
O=C(O)c1ccc(OCCCON=Cc2cc3ccccc3n2Cc2ccccc2)c(-c2ccc(C(F)(F)F)cc2)c1	196 to 197
COc1ccc(S(=O)(=O)n2c(=O)n(-c3ccccc3)c3cc(Cl)ccc32)cc1OC	154
Cc1ccc(NC(=O)c2ccc(CN(C)C)c(C(F)(F)F)c2)cc1Br	169 to 172
NC(=NC(=O)Cn1c(Cl)ccc1Cl)NC(=O)Cc1ccccc1	181 to 183
CCOC(=O)C(=O)c1ccc(OCCOc2ccc3ccccc3c2)s1	98 to 100
COc1cc(OC)c(-c2nc3cccnc3[nH]2)cc1C=CC(=O)c1ccc(C(=O)O)cc1	222 to 224

Compound	melting point [°C]
Cc1nc[nH]c1CSCCNC(=O)NCCSCc1[nH]cnc1C	225 to 228
O=[N+]([O-])c1ccc(-c2cnn3c(O)ncnc23)cc1	> 300
CCOc1ccc(-c2nc(=O)c3ccccc3s2)cn1	152 to 156
CC(C)(C)OC(=O)Nc1ccc(C#Cc2nccs2)cc1[N+](=O)[O-]	137
COc1ccc(/C=C/c2cc(/C=C/c3ccc4cc[nH]c4c3)[nH]n2)c(OC)c1	121 to 133
Cc1ccc(S(=O)(=O)OC2CCC3(CC2)OCCO3)cc1	65 to 67.5
COc1cc2c(cc1OCc1ccccc1)CCN(C(=O)NCCN(C)C1CCCCC1)C2c1ccccc1 (stereo unspecified)	109 to 110
COC(=O)c1ccc2c(c1)nc(C)n2N	220 to 222
COc1ccc(-c2cccc(OC3SCC(O)C(O)C3O)c2)cn1 (stereo unspecified)	174
O=C(O)c1ccc(S(=O)(=O)Cl)cc1O	173
CC(=O)Nc1nc(N)c2ncn(C3OC(C(O)C(=O)O)C(O)C3O)c2n1 (stereo unspecified)	295
COC(=O)C(C)(C)c1ccc(C(=O)Nc2cn3cc(-c4ccsc4)ccc3n2)cc1	200 to 201
CCc1nnc(-c2ccc(OC)cc2)n1-c1ccc(N(C)C)cc1	136
O=C(Nc1ccc(CC2CCN(S(=O)(=O)N3CCCCC3)CC2)cc1)C(F)(F)F	156 to 157
CCOC(=O)c1[nH]c2cc(Cl)cc(Cl)c2c1N(Cc1ccccc1)C(=O)c1ccccc1	174 to 175
CCCn1c(COCC)nc2c(N)nc3cc(OC4CCN(C(C)=O)CC4)ccc3c21	178 to 180
C[C@H]1C(=O)Nc2ccc(Cl)cc2N1C(=O)OCCBr	133 to 136
CC(=O)Oc1cc2oc(=O)ccc2cc1C	147
O=C(Nc1ccc(-n2nc(C(F)(F)F)cc2C(F)(F)F)cc1)c1ccccc1Oc1ccccc1	108 to 109
c1ccc(N2CCN(c3nc4cccc5c4n3CCC5)CC2)cc1	168 to 169
CC(C)n1nc2c(F)cccc2c1-c1ccc(O)cc1O	> 160
Cc1ccc(S(=O)(=O)C2(CC#Cc3ccc(Cl)cc3)SC(=O)NC2=O)cc1 (stereo unspecified)	172 to 174
Cc1ccc(S(=O)(=O)OCP(=O)(OC(C)C)OC(C)C)cc1	37.5
Nc1sc2c(c1C(=O)c1ccc(Cl)cc1)CCC(O)C2 (stereo unspecified)	176 to 177

Compound	melting point [°C]
CC1(C)C(=O)C(C)(C)c2cc([N+](=O)[O-])c([N+](=O)[O-])cc21	212 to 218
CCCNC(=O)c1cc(-c2ccc(OC)cc2)nn(CC2CCCC2)c1=O	110
O=S(=O)(Cl)c1cccc2c1COC2	40 to 43
CCc1noc(-c2cc3c(-c4cccs4)nccc3[nH]c2=O)n1	265 to 268
CCCCC1=NC(NC(=O)C2(NC(=O)CCC(C)C)CCCC2)C(=O)N(Cc2ccccn2)c2ccccc21 (stereo unspecified)	63 to 67
COC(=O)/C=C/[C@@H](c1ccc2ccccc2c1)c1cccc2c1ccn2C(=O)OC(C)(C)C	75 to 78
Cc1cc(Br)c2c(c1)/C(=N\NC(N)=O)C(=O)N2CCN(C(C)C)C(C)C	189 to 192
CC(C)c1nc(CN2C(=O)C3(COc4cc5c(cc43)OCO5)c3cccc(C#N)c32)cs1 (stereo unspecified)	162 to 163
NS(=O)(=O)c1cc2c(cc1Cl)C(=O)N(CCc1ccccn1)C2=O	240 to 241
CC(C)OC(=O)C=C1CN=C(c2ccccc2F)c2cc(Cl)ccc2N1	144 to 145
CC(CN(C)C)Oc1ccc(-c2n[nH]c3ncccc23)cc1 (stereo unspecified)	130 to 132
OCc1cnc(Cl)c(Cl)c1	72 to 75
CN1CCCC1=NC(=O)Nc1ccc(Cl)c(Cl)c1	160
CCOC(=O)CCCCCOc1ccc(-c2ccccc2)c(-c2ccccc2)n1	85 to 87
COC(=O)C=NOCC(=O)C=CN(C)C	63 to 64
NS(=O)(=O)c1cnc(-c2cn(-c3cc(-c4ccc(Cl)cc4)cc(C(F)(F)F)n3)cn2)s1	263
CC(Oc1cc(Oc2ccc(C(F)(F)F)cc2Cl)ccc1[N+](=O)[O-])C(=O)NCc1ccco1 (stereo unspecified)	128 to 130
CCN(CC)Cc1cccc(OCCCNc2nc(N)nn2C)c1	68 to 69
O=C(Nc1nccs1)c1cccc(-c2ccc3c(c2)C(Oc2ccc(Cl)cc2Cl)CC3)c1 (stereo unspecified)	180 to 181
CN1C(=O)CC[C@]2(C)c3ccc(-c4ccc(F)cc4)cc3CC[C@@H]12	121 to 122
CNc1nc(Nc2ccccc2C)c2cccc(OC)c2n1	190 to 192
CCCNC(=O)c1ccc2c(c1)N(C(C)COS(C)(=O)=O)c1ccccc1S2 (racemic)	138
CCOC(=O)c1cccc2nc(C)n(Cc3ccc(-c4ccccc4-c4nnn[nH]4)cc3)c12	205 to 206
